pIC50: −log10 of the molar value.
Legend:
human CB1 receptor [1] = target: T1, human CB1 receptor (Homo sapiens, UniProt P21554); assay: bioSensAll GAPL-Gi2 BRET biosensor assay (antagonism of CP-55,940); format: cell-based; details: HEK293 cells transfected with hCB1 and GAPL-Gi2 biosensor, EC75 of CP-55,940 (0.1 nM), overnight incubation, read-out: CB1 wt Gi2 IC50
T1 construct: expressed in transfected cells; host or cells: HEK293
Summary of the method: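 HEK293 cells transiently co-transfected with hCB1 and GAPL-Gi2 BRET biosensor; ~48 h later, in HBSS, 12 compound doses ([…]) added 3–5 min before CP-55,940 at EC75 (0.1 nM). BRET ratio 515/400 nm with coelenterazine, standardized to uBRET; four-parameter logistic fit.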

human CB1 receptor [2] = target: T1, human CB1 receptor; assay: bioSensAll β-arrestin plasma membrane translocation BRET biosensor (+GRK2) assay (antagonism of CP-55,940); format: cell-based; details: HEK293 cells transfected with hCB1 and β-arrestin PM translocation biosensor (+GRK2), EC75 of CP-55,940 (100 nM), overnight incubation, read-out: CB1 wt βarr2 IC50
Summary of the method: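 HEK293 cells co-transfected with hCB1 and β-arrestin plasma-membrane translocation BRET biosensor plus GRK2, tested ~48 h later in HBSS. Compounds (12 doses, 0–600 nM) added 3–5 min before CP-55,940 at EC75 of 100 nM. uBRET ratio (515/400 nm) fitted by four-parameter logistic regression.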

T1 sequence (P21554 whole entry): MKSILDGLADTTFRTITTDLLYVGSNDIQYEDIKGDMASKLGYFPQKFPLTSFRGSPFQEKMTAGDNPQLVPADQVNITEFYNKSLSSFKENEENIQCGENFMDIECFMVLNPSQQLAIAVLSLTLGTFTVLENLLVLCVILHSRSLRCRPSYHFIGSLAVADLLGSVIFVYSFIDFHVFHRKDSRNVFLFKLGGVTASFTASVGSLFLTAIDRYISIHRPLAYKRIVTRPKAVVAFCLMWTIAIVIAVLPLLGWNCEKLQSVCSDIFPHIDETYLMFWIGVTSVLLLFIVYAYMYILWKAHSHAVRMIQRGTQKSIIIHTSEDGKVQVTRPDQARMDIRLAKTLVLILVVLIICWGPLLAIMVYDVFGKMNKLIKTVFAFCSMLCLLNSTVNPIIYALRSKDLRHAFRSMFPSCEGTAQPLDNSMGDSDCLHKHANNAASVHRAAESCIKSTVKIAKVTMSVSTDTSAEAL

| SMILES | pIC50 (human CB1 receptor [1]) | pIC50 (human CB1 receptor [2]) |
| --- | --- | --- |
| CC(C)(O)COc1cc(N2CCN(S(=O)(=O)C(F)(F)F)CC2)n2nc(-c3ccc(C#N)nc3)c(-c3ccc(Cl)cc3)c2n1 [Compound 53, 5-[3-(4-chlorophenyl)-5-(2-hydroxy-2-methyl-propoxy)-7-[4-(trifluoromethylsulfonyl)piperazin-1-yl]pyrazolo[1,5-a]pyrimidin-2-yl]pyridine-2-carbonitrile] | 8.97 | 8.91 |
| CC(C)(O)COc1cc(N2CCC(C)(C(N)=O)CC2)n2nc(-c3ccc(C#N)nc3)c(-c3ccc(Cl)cc3)c2n1 [Compound 54, 1-[3-(4-chlorophenyl)-2-(6-cyano-3-pyridyl)-5-(2-hydroxy-2-methyl-propoxy)pyrazolo[1,5-a]pyrimidin-7-yl]-4-methyl-piperidine-4-carboxamide] | 8.99 | 8.61 |
| CCOC1(C(N)=O)CCN(c2cc(OCC(C)(C)O)nc3c(-c4ccc(Cl)cc4)c(-c4ccc(C#N)nc4)nn23)CC1 [Compound 55, 1-[3-(4-chlorophenyl)-2-(6-cyano-3-pyridyl)-5-(2-hydroxy-2-methyl-propoxy)pyrazolo[1,5-a]pyrimidin-7-yl]-4-ethoxy-piperidine-4-carboxamide] | 8.90 | 8.49 |
| Cc1ccc(-c2cc(N3CCC[C@H]3CO)nc3c(-c4ccc(Cl)cc4)c(-c4ccccc4Cl)nn23)cn1 [Compound 56, [(2S)-1-[2-(2-chlorophenyl)-3-(4-chlorophenyl)-7-(6-methyl-3-pyridyl)pyrazolo[1,5-a]pyrimidin-5-yl]pyrrolidin-2-yl]methanol] | 8.57 | 8.24 |
| CC(C)OC1(C(N)=O)CCN(c2cc(OCC(C)(C)O)nc3c(-c4ccc(Cl)cc4)c(-c4ccccc4Cl)nn23)CC1 [Compound 57, 1-[2-(2-chlorophenyl)-3-(4-chlorophenyl)-5-(2-hydroxy-2-methyl-propoxy)pyrazolo[1,5-a]pyrimidin-7-yl]-4-isopropoxy-piperidine-4-carboxamide] | 8.98 | 8.54 |
| CC(C)OC1(C(N)=O)CCN(c2cc(N3CCC[C@H]3CO)nc3c(-c4ccc(Cl)cc4)c(-c4ccccc4Cl)nn23)CC1 [Compound 58, 1-[2-(2-chlorophenyl)-3-(4-chlorophenyl)-5-[(2S)-2-(hydroxymethyl)pyrrolidin-1-yl]pyrazolo[1,5-a]pyrimidin-7-yl]-4-isopropoxy-piperidine-4-carboxamide] | 9.00 | 8.66 |
| CC(C)(O)COc1cc(N2CC(C(N)=O)C2)n2nc(-c3ccc(C#N)nc3)c(-c3ccc(Cl)cc3)c2n1 [Compound 59, 1-[3-(4-chlorophenyl)-2-(6-cyano-3-pyridyl)-5-(2-hydroxy-2-methyl-propoxy)pyrazolo [1,5-a]pyrimidin-7-yl]azetidine-3-carboxamide] | 8.21 | 7.66 |
| CC(C)(O)COc1cc(N2CC(C)(C(N)=O)C2)n2nc(-c3ccc(C#N)nc3)c(-c3ccc(Cl)cc3)c2n1 [Compound 60, 1-[3-(4-chlorophenyl)-2-(6-cyano-3-pyridyl)-5-(2-hydroxy-2-methyl-propoxy)pyrazolo[1,5-a]pyrimidin-7-yl]-3-methyl-azetidine-3-carboxamide] | 8.82 | 8.30 |
| N#Cc1ccc(-c2nn3c(N4CC(C(N)=O)C4)cc(N4CCC[C@H]4CO)nc3c2-c2ccc(Cl)cc2)cn1 [Compound 61, 1-[3-(4-chlorophenyl)-2-(6-cyano-3-pyridyl)-5-[(2S)-2-(hydroxymethyl)pyrrolidin-1-yl]pyrazolo[1,5-a]pyrimidin-7-yl]azetidine-3-carboxamide] | 8.86 | 8.44 |
| CN(CC1COC(C)(C)OC1)c1cc(N2CCC(C)(C(N)=O)CC2)n2nc(-c3ccccc3Cl)c(-c3ccc(Cl)cc3)c2n1 [Compound 62, 1-[2-(2-chlorophenyl)-3-(4-chlorophenyl)-5-[(2,2-dimethyl-1,3-dioxan-5-yl)methyl-methyl-amino]pyrazolo[1,5-a]pyrimidin-7-yl]-4-methyl-piperidine-4-carboxamide] | 5.12 | < 4.52 |
| CC(C)OC1(C(N)=O)CCN(c2cc(OCC(C)(C)O)nc3c(-c4ccc(Cl)cc4)c(-c4ccc(C#N)nc4)nn23)CC1 [Compound 63] | 9.05 | 8.79 |
| CN(CC(C)(C)O)c1cc(-c2ccc(C(F)(F)F)nc2)n2nc(-c3ccc(C(N)=O)nc3)c(-c3ccc(Cl)cc3)c2n1 [Compound 64, 5-[3-(4-chlorophenyl)-5-[(2-hydroxy-2-methyl-propyl)-methyl-amino]-7-[6-(trifluoromethyl)-3-pyridyl]pyrazolo[1,5-a]pyrimidin-2-yl]pyridine-2-carboxamide] | 8.90 | 8.53 |
| CNC(=O)[C@H]1CCN1c1cc(N2CCC(C)(C(N)=O)CC2)n2nc(-c3ccccc3Cl)c(-c3ccc(Cl)cc3)c2n1 [Compound 65, 1-[2-(2-chlorophenyl)-3-(4-chlorophenyl)-5-[(2R)-2-(methylcarbamoyl)azetidin-1-yl]pyrazolo[1,5-a]pyrimidin-7-yl]-4-methyl-piperidine-4-carboxamide] | 7.88 | 7.69 |
| CN(CCOCCO)c1cc(N2CCC(C)(C(N)=O)CC2)n2nc(-c3ccccc3Cl)c(-c3ccc(Cl)cc3)c2n1 [Compound 66, 1-[2-(2-chlorophenyl)-3-(4-chlorophenyl)-5-[2-(2-hydroxyethoxy)ethyl-methyl-amino]pyrazolo[1,5-a]pyrimidin-7-yl]-4-methyl-piperidine-4-carboxamide] | 8.14 | 7.33 |
| CN(C[C@H](O)CO)c1cc(N2CCC(C)(C(N)=O)CC2)n2nc(-c3ccccc3Cl)c(-c3ccc(Cl)cc3)c2n1 [Compound 67, 1-[2-(2-chlorophenyl)-3-(4-chlorophenyl)-5-[[(2S)-2,3-dihydroxypropyl]-methyl-amino]pyrazolo[1,5-a]pyrimidin-7-yl]-4-methyl-piperidine-4-carboxamide] | 8.71 | 7.84 |
| C[C@@H](C(N)=O)N(C)c1cc(N2CCC(C)(C(N)=O)CC2)n2nc(-c3ccccc3Cl)c(-c3ccc(Cl)cc3)c2n1 [Compound 68, 1-[5-[[(1S)-2-amino-1-methyl-2-oxo-ethyl]-methyl-amino]-2-(2-chlorophenyl)-3-(4-chlorophenyl)pyrazolo[1,5-a]pyrimidin-7-yl]-4-methyl-piperidine-4-carboxamide] | 8.52 | 7.84 |
| CCNC(=O)CN(C)c1cc(N2CC(OCC(N)=O)C2)n2nc(-c3ccccc3Cl)c(-c3ccc(Cl)cc3)c2n1 [Compound 69, 2-[[7-[3-(2-amino-2-oxo-ethoxy)azetidin-1-yl]-2-(2-chlorophenyl)-3-(4-chlorophenyl)pyrazolo[1,5-a]pyrimidin-5-yl]-methyl-amino]-N-ethyl-acetamide] | 5.41 | < 4.52 |
| C[C@@H](O)COc1cc(-c2ccc(C(F)(F)F)nc2)n2nc(-c3ccccc3Cl)c(-c3ccc(Cl)cc3)c2n1 [Compound 70(R)] | 8.95 | 8.56 |
| C[C@H](O)COc1cc(-c2ccc(C(F)(F)F)nc2)n2nc(-c3ccccc3Cl)c(-c3ccc(Cl)cc3)c2n1 [Compound 70(S)] | 8.77 | 8.08 |
| C[C@H](CO)Oc1cc(-c2ccc(C(F)(F)F)nc2)n2nc(-c3ccccc3Cl)c(-c3ccc(Cl)cc3)c2n1 [Compound 71(R)] | 8.51 | 7.91 |
| C[C@@H](CO)Oc1cc(-c2ccc(C(F)(F)F)nc2)n2nc(-c3ccccc3Cl)c(-c3ccc(Cl)cc3)c2n1 [Compound 71(S)] | 8.86 | 8.39 |
| O[C@@H]1CCN(c2cc(-c3ccc(C(F)(F)F)nc3)n3nc(-c4ccccc4Cl)c(-c4ccc(Cl)cc4)c3n2)C1 [Compound 72(R)] | 8.88 | 8.48 |
| O[C@H]1CCN(c2cc(-c3ccc(C(F)(F)F)nc3)n3nc(-c4ccccc4Cl)c(-c4ccc(Cl)cc4)c3n2)C1 [Compound 72(S)] | 8.79 | 8.28 |
